Reference: paper PMC7822874, “Chemoprotective antimalarials identified through quantitative high-throughput screening of Plasmodium blood and liver stage parasites” (Scientific Reports, 2021)

What was measured:
[1] = in vitro; conditions: human, HepG2 cells; n = 1
[2] = test system: Plasmodium falciparum Dd2 asexual blood stage parasites; test: microbe, parasite or virus in culture; design: species or system Plasmodium falciparum Dd2 in human erythrocytes; single determination (one 11-point concentration-response curve); conditions: Plasmodium falciparum, DD2, Erythrocyte, 72 h; read-out: AC50

| Structure (SMILES) | CC50 at 48 h [1] [µM] | AC50 [2] [µM] |
| --- | --- | --- |
| N=c1ccn(CC(=O)c2ccc(-c3ccccc3)cc2)cc1 [MLS000698051-01] | 24.3 | 0.944 |
| CCOC(=O)c1c(C)[nH]c2c1-c1ccccc1C(=O)C2=O [MLS000701140-01] | 10.9 | 2.37 |
| c1ccc(CCNc2nc(-c3ccccn3)cs2)cc1 [MLS000708031-01] | 21.7 | 7.5 |
| c1ccc(Oc2nc(-c3ccccn3)nc3ccccc23)cc1 [MLS000769533-01] | 9.68 | 7.5 |
| O=C(NNc1ccnc2cc(Cl)ccc12)C1CCCCC1 [MLS000770801-01] | 12.2 | 7.5 |
| O=C(Oc1c(CN2CCOCC2)cc(Cl)c2cccnc12)c1ccccc1Br [MLS000770987-01] | 19.3 | 7.5 |
| O=S(=O)(c1ccc(Cl)cc1)N1CCN(Cc2ccc(O)c3ncccc23)CC1 [MLS000774708-01] | 10.9 | 13.3 |
| O=C1C=CC(Br)=CC1=CNNC(=O)c1ccncc1 [MLS000778139-01] | 12.2 | 9.44 |
| O=C(Nc1cc(C(F)(F)F)cc(C(F)(F)F)c1)Nc1cnn(-c2ccc([N+](=O)[O-])cc2)c1C(F)(F)F [MLS000851511-01] | 10.9 | 6.68 |
| CN(C)CC(O)COc1ccc(C(C)(C)c2ccc(OCC(O)CN(C)C)cc2)cc1 (stereo not drawn) [MLS001073934-01] | 21.7 | 8.41 |
| COc1cnc(-c2ccccn2)nc1N(C)c1ccccc1 [MLS001166302-01] | 13.7 | 5.96 |
| CCCC(=O)NC(c1ccccc1)c1ccc2cccnc2c1O (stereo not drawn) [MLS001204078-01] | 12.2 | 6.68 |
| COc1cccc(C(NC(C)=O)c2ccc3cccnc3c2O)c1 (stereo not drawn) [MLS001204096-01] | 12.2 | 4.22 |
| CCCCC(=O)NC(c1ccc(C(C)C)cc1)c1ccc2cccnc2c1O (stereo not drawn) [MLS001204647-01] | 15.3 | 7.5 |
| CCCC(=O)NC(c1ccc(C(C)C)cc1)c1ccc2cccnc2c1O (stereo not drawn) [MLS001211083-01] | 12.2 | 13.3 |
| O=C(Nc1nc(-c2ccccn2)cs1)c1ccc(F)c(S(=O)(=O)N2CCOCC2)c1 [MLS002162137-01] | 10.9 | 2.11 |
| FC(F)(F)c1cccc(Nc2nc3nonc3nc2Nc2ccc(Cl)cc2)c1 [NCGC00100377-01] | 3.85 | 0.75 |
| COc1ccc(C2C=C(c3ccc(F)cc3)Nc3nc(-c4ccc(Cl)cc4)nn32)cc1 (stereo not drawn) [NCGC00100513-01] | 27.3 | 0.75 |
| COc1ccccc1Nc1c2c(nc3ccc(NC(=O)/C=C/c4cccc(OC)c4OC)cc13)CCCC2 [NCGC00104013-01] | 30.6 | 5.96 |
| CCN(CC)[S+](=O)([O-])c1ccc(NC(=O)CCc2c(C)nc3cc(-c4ccc(Cl)cc4)nn3c2C)cc1 [NCGC00110055-01] | 27.3 | 4.73 |
| CCOCc1cc(CN2CCN(c3ccccc3OC)CC2)c(O)c2ncccc12 [NCGC00114940-01] | 9.68 | 5.96 |
| CC(C)OCc1cc(CN2CCN(c3cccc(C(F)(F)F)c3)CC2)c(O)c2ncccc12 [NCGC00114970-01] | 10.9 | 6.68 |
| CCCCOCc1cc(CN2CCN(c3cccc(Cl)c3)CC2)c(O)c2ncccc12 [NCGC00114972-01] | 17.2 | 6.68 |
| Cc1ccc(Nc2nc3nonc3nc2Nc2cccc(C(F)(F)F)c2)cc1Cl [NCGC00117632-01] | 4.32 | 2.11 |
| CCOC(=O)c1ccc(Nc2nc3nonc3nc2Nc2cccc(C)c2C)cc1 [NCGC00117662-01] | 10.9 | 8.41 |
| Fc1ccc(Nc2nc3nonc3nc2Nc2cccc(C(F)(F)F)c2)cc1 [NCGC00117664-01] | 4.32 | 1.68 |
| Oc1c(C(Nc2ccccn2)c2ccccc2F)ccc2cccnc12 (stereo not drawn) [NCGC00135751-01] | 27.3 | 9.44 |
